The values that follow come from patent US9714247B2, “Multiple kinase pathway inhibitors” (Mannkind Corporation, priority 2012, dated 2017).

Each structure is given as a SMILES string. Like-named read-outs stand apart in the source and are kept apart here.

Assay [1] addresses T1, Src (Homo sapiens (Human), UniProt P12931). Nature of the assay: biochemical.
The next assay relates to DoHH2. Kind of assay: CellTiter-Glo proliferation/viability assay. Format: cell-based, human. The conditions noted are these: Homo sapiens, DOHH-2; 48 hrs; read-out: DoHH2 EC50.
Another assay has as its system Ramos. Kind of assay: CellTiter-Glo proliferation/viability assay. Format: cell-based, human. The conditions noted are these: read-out: Ramos EC50. (Cellular ATP, detected with luciferase, serves as a proxy for viable cell number.)
Assay [2] deals with T2, Lyn (Homo sapiens (Human), UniProt P07948). Kind of assay: biochemical.
T2 sequence (P07948 whole entry): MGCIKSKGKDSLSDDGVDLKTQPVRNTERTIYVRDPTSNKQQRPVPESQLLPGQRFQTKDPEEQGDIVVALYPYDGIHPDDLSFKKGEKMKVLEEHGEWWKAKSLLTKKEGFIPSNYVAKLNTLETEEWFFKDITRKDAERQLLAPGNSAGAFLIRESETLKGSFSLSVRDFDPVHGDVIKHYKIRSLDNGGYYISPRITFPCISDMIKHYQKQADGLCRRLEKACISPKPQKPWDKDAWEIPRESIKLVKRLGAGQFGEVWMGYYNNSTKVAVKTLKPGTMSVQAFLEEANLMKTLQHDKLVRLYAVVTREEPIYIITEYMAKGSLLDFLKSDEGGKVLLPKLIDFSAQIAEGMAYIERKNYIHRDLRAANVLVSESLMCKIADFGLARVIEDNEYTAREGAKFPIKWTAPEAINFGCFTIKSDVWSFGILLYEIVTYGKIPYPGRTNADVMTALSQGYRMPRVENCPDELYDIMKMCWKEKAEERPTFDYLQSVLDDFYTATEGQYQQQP
Another assay addresses BTK (Homo sapiens (Human), UniProt Q06187).
For assay [3], the target named is T2, Lyn. To be noted: read-out: Lyn IC50.
In assay [4] the target is T1, Src. To be noted: read-out: Src IC50.

T1 sequence (P12931 whole entry, looked up): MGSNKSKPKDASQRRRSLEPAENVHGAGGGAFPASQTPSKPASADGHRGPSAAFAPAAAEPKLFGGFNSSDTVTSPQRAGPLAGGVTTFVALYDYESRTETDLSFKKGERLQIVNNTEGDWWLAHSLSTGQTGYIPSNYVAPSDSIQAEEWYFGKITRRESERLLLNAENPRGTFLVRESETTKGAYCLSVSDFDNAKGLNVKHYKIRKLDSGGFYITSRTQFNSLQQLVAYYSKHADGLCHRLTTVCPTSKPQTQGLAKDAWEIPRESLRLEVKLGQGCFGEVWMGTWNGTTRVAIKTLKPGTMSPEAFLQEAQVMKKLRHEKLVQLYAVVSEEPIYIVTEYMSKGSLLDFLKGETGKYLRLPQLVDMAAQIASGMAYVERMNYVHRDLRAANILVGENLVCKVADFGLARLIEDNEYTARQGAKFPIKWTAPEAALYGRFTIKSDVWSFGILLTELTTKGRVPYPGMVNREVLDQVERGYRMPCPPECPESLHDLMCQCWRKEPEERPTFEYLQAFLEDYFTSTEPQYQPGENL
BTK, sequence (Q06187 whole entry): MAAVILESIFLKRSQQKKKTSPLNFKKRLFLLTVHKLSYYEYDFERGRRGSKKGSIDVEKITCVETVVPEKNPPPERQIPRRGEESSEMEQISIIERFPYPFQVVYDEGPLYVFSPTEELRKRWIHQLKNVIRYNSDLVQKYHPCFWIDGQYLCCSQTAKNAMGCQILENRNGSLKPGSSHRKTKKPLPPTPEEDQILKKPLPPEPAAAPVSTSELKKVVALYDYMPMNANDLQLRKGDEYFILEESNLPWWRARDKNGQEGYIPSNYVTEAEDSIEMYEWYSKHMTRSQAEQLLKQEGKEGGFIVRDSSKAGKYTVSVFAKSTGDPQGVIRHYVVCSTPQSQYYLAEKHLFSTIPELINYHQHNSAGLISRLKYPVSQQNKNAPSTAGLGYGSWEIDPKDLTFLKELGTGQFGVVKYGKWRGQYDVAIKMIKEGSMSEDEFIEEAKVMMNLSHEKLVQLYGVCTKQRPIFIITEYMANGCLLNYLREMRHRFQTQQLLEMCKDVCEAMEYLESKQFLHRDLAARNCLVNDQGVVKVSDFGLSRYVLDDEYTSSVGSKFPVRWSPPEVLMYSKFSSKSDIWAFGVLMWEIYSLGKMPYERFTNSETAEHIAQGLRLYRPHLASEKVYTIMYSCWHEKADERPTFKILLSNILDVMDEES

With `O=c1c(-c2c(F)cccc2F)cc2cnc(Nc3ccc(F)cn3)cc2n1C1CCOC1` (single isomer, unassigned) [Compound 141, (S or R)-3-(2,6-difluorophenyl)-7-((5-fluoropyridin-2-yl)amino)-1-(tetrahydrofuran-3-yl)-1,6-naphthyridin-2(1H)-one], the values for the IC50 at Src [1] and against Lyn [2] (Lyn IC50) were less than 100 nM and 100 to 1000 nM, respectively. For the same compound, the EC50 (as a rule, the midpoint of the concentration-response curve) is less than 1000 nM with DoHH2 and 1000 to 10000 nM with Ramos (Homo sapiens, Ramos, 48 h).

As for `CCN(CC)CCOc1ccc(Nc2cc3c(cn2)cc(-c2c(F)cccc2F)c(=O)n3C2CCOC2)nc1` (single isomer, unassigned) [Compound 143, (S or R)-7-((5-(2-(diethylamino)ethoxy)pyridin-2-yl)amino)-3-(2,6-difluorophenyl)-1-(tetrahydrofuran-3-yl)-1,6-naphthyridin-2(1H)-one], the half-maximal inhibitory concentration (IC50) at Src [1], at BTK and against Lyn [2] (Lyn IC50) was less than 100 nM in each case. Moreover, the EC50 with DoHH2 is less than 1000 nM; in the assay with Ramos (48 hrs), more than 10000 nM.

Consider `CCN(CC)CCOc1ccc(Nc2cc3c(cn2)cc(-c2c(Cl)cccc2Cl)c(=O)n3C2CCOC2)nc1` (single isomer, unassigned) [Compound 145, (S or R)-3-(2,6-dichlorophenyl)-7-((5-(2-(diethylamino)ethoxy)pyridin-2-yl)amino)-1-(tetrahydrofuran-3-yl)-1,6-naphthyridin-2(1H)-one], for which the IC50 on Src [1], against BTK and on Lyn [2] (Lyn IC50) was less than 100 nM each time. In addition, the concentration giving a half-maximal response (EC50) in the assay on DoHH2 is less than 1000 nM; in the assay with Ramos (Homo sapiens, Ramos, 48 h), 1000 to 10000 nM.

For the compound `O=c1c(-c2c(Cl)cccc2Cl)cc2cnc(Nc3ccc(F)cn3)cc2n1C1CCOC1` (single isomer, unassigned) [Compound 147, (S or R)-3-(2,6-dichlorophenyl)-7-((5-fluoropyridin-2-yl)amino)-1-(tetrahydrofuran-3-yl)-1,6-naphthyridin-2(1H)-one], the IC50 against Src [1], on BTK and against Lyn [2] was less than 100 nM in each case. The EC50 with DoHH2 is less than 1000 nM; with Ramos (Homo sapiens, Ramos, 48 h) it was more than 10000 nM.

For `CCN(CC)CCOc1cnc(Nc2cc3c(cn2)cc(-c2ccccc2)c(=O)n3CC)nc1` [Compound 3, 7-[5-(2-Diethylamino-ethoxy)-pyrimidin-2-ylamino]-1-ethyl-3-phenyl-1H-[1,6]naphthyridin-2-one], the figures for the IC50 against Src [1], on BTK and at Lyn [3] were 1000 to 5000 nM, 1000 to 5000 nM and more than 5000 nM, respectively. Moreover, the EC50 in the assay on DoHH2 was 1000 to 10000 nM; in the assay with Ramos (Homo sapiens, Ramos, 48 hrs), more than 10000 nM.

Turning to `CCn1c(=O)c(-c2ccccc2)cc2cnc(Nc3ccc(C(=O)N4CCOCC4)cn3)cc21` [Compound 4, 1-Ethyl-7-[5-(morpholine-4-carbonyl)-pyridin-2-ylamino]-3-phenyl-1H-[1,6]naphthyridin-2-one], the IC50 (commonly the concentration that gives 50% inhibition) on Src [1] was 100 to 1000 nM; at BTK (read-out: BTK IC50) it was more than 5000 nM; on Lyn [3], less than 100 nM. For the same compound, the half-maximal effective concentration (EC50) in the assay on DoHH2 is 1000 to 10000 nM; with Ramos (Homo sapiens, Ramos, 48 hrs), less than 1000 nM.

`CCn1c(=O)c(-c2ccccc2)cc2cnc(Nc3cc(N4CCN(CCO)CC4)nc(C)n3)cc21` [Compound 5, 1-Ethyl-7-{6-[4-(2-hydroxy-ethyl)-piperazin-1-yl]-2-methyl-pyrimidin-4-ylamino}-3-phenyl-1H-[1,6]naphthyridin-2-one]: the IC50 against Src [1] was 1000 to 5000 nM; on BTK, 100 to 1000 nM; at Lyn [2], 100 to 1000 nM. For the same compound, the EC50 is 1000 to 10000 nM with DoHH2 and more than 10000 nM in the assay with Ramos (Homo sapiens, Ramos, 48 h).

For `CCn1c(=O)c(-c2ccccc2)cc2cnc(Nc3cnccn3)cc21` [Compound 6, 1-Ethyl-3-phenyl-7-(pyrazin-2-ylamino)-1H-[1,6]naphthyridin-2-one], the values for the half-inhibitory concentration (IC50) on Src [1], on BTK and against Lyn [2] were 1000 to 5000 nM, 1000 to 5000 nM and 100 to 1000 nM, respectively. The EC50 with DoHH2 was more than 10000 nM; with Ramos (Homo sapiens, Ramos, 48 hrs) it was more than 10000 nM.

`CC#Cc1cc2cnc(Nc3ccc(C)cn3)cc2n(CC)c1=O` [Compound 21]: the IC50 against Src [1] was 100 to 1000 nM; at BTK (read-out: BTK IC50) it was more than 5000 nM; at Lyn [3], more than 5000 nM. Besides, the EC50 in the assay on DoHH2 fell in the range of 1000 to 10000 nM; with Ramos (Homo sapiens, Ramos, 48 hrs) it was 1000 to 10000 nM.

For `CCn1c(=O)c(C2CCCC2)cc2cnc(Nc3ccc(C)cn3)cc21` [Compound 31, 3-Cyclopentyl-1-ethyl-7-(5-methyl-pyridin-2-ylamino)-1H-[1,6]naphthayridin-2-one], the figures for the IC50 at Src [1], on BTK (read-out: BTK IC50) and on Lyn [3] were 100 to 1000 nM, more than 5000 nM and more than 5000 nM, respectively. In addition, the EC50 is more than 10000 nM with DoHH2 and 1000 to 10000 nM with Ramos (Homo sapiens, Ramos, 48 h).

`CCn1c(=O)c(C#CCOC)cc2cnc(Nc3ccc(C)cn3)cc21` [Compound 32]: the values for the IC50 against Src [1], at BTK (read-out: BTK IC50) and on Lyn [3] were 1000 to 5000 nM, more than 5000 nM and more than 5000 nM, respectively. In addition, the 50% effective concentration (EC50) with DoHH2 was more than 10000 nM; with Ramos (Homo sapiens, Ramos, 48 h) it was more than 10000 nM.

On to `CCn1c(=O)c(C(C)=O)cc2cnc(Nc3ccc(C)cn3)cc21` [Compound 33], for which the IC50 against Src [1] is 1000 to 5000 nM; on BTK (read-out: BTK IC50) it was more than 5000 nM; at Lyn [3] it was more than 5000 nM. Moreover, the EC50 was more than 10000 nM in the assay on DoHH2 and more than 10000 nM in the assay with Ramos (Homo sapiens, Ramos, 48 hrs).

`CCn1c(=O)c(C#CC(C)(C)C)cc2cnc(Nc3ccc(C)cn3)cc21` [Compound 39]: the IC50 against Src [1] was 100 to 1000 nM; on BTK (read-out: BTK IC50) it was more than 5000 nM; on Lyn [3], more than 5000 nM. The EC50 lay within 1000 to 10000 nM in the assay with DoHH2 and 1000 to 10000 nM in the assay with Ramos (Homo sapiens, Ramos, 48 h).

Regarding `CCn1c(=O)c(-c2ccc(C)cc2)cc2cnc(Nc3ccc(C)cn3)cc21` [Compound 40, 1-ethyl-7-(5-methylpyridin-2-ylamino)-3-p-tolyl-1,6-naphthyridin-2(1H)-one], the concentration for half-maximal inhibition (IC50) was 100 to 1000 nM on Src [1], more than 5000 nM at BTK (read-out: BTK IC50) and more than 5000 nM on Lyn [3]. Also, the EC50 with DoHH2 is more than 10000 nM; with Ramos (Homo sapiens, Ramos, 48 h) it was more than 10000 nM.

Turning to `CCN(CC)CCOc1ccc(Nc2cc3c(cn2)cc(C(C)C)c(=O)n3CC)nc1` [Compound 50, 7-[5-(2-Diethylamino-ethoxy)-pyridin-2-ylamino]-1-ethyl-3-isopropyl-1H-[1,6]naphthyridin-2-one], the concentration for half-maximal inhibition (IC50) against Src [1] and at Lyn [2] was 100 to 1000 nM each time. The EC50 was 1000 to 10000 nM with DoHH2 and more than 10000 nM with Ramos (Homo sapiens, Ramos, 48 hrs).

As to `CCN(CC)CCOc1ccc(Nc2cc3c(cn2)cc(C(C)C)c(=O)n3CCOC)nc1` [Compound 57, 7-[5-(2-Diethylamino-ethoxy)-pyridin-2-ylamino]-3-isopropyl-1-(2-methoxy-ethyl)-1H-[1,6]naphthyridin-2-one], the half-maximal inhibitory concentration (IC50) on Src [1] was 100 to 1000 nM; against BTK, 1000 to 5000 nM; at Lyn [3], more than 5000 nM. Also, the EC50 is 1000 to 10000 nM in the assay with DoHH2 and more than 10000 nM in the assay on Ramos (Homo sapiens, Ramos, 48 hrs).

Take `CCN(CC)CCOc1ccc(Nc2cc3c(cn2)cc(C(C)C)c(=O)n3C)nc1` [Compound 59, 7-[5-(2-Diethylamino-ethoxy)-pyridin-2-ylamino]-3-isopropyl-1-methyl-1H-[1,6]naphthyridin-2-one]: on Src [1], the IC50 is 100 to 1000 nM. Moreover, the EC50 in the assay on DoHH2 is 1000 to 10000 nM; in the assay on Ramos (Homo sapiens, Ramos, 48 hrs), more than 10000 nM.

As for `CN1CCC(n2c(=O)c(-c3c(F)cccc3F)cc3cnc(Nc4ccc(F)cn4)cc32)C1` (stereo not drawn) [Compound 85, 3-(2,6-difluorophenyl)-7-((5-fluoropyridin-2-yl)amino)-1-(1-methylpyrrolidin-3-yl)-1,6-naphthyridin-2(1H)-one], the IC50 against Src [1] and at Lyn [2] (Lyn IC50) was 1000 to 5000 nM each time. For the same compound, the EC50 is 1000 to 10000 nM in the assay with DoHH2 and more than 10000 nM in the assay on Ramos (Homo sapiens, Ramos, 48 h).

In the case of `CCN(CC)CCOc1ccc(Nc2cc3c(cn2)cc(-c2cccc(SC)c2)c(=O)n3CC)nc1` [Compound 105, 7-((5-(2-(diethylamino)ethoxy)pyridin-2-yl)amino)-1-ethyl-3-(3-(methylthio)phenyl)-1,6-naphthyridin-2(1H)-one], the EC50 with DoHH2 was 1000 to 10000 nM; in the assay with Ramos (Homo sapiens, Ramos, 48 hrs), 1000 to 10000 nM. Further, the results for the concentration for half-maximal inhibition (IC50) against BTK, at Src [4] and at Lyn [2] were 1000 to 5000 nM, less than 100 nM and 100 to 1000 nM, respectively.

Take `CCN(CC)CCOc1ccc(Nc2cc3c(cn2)cc(-c2ccccc2Cl)c(=O)n3CC)nc1` [Compound 106, 3-(2-chlorophenyl)-7-((5-(2-(diethylamino)-ethoxy)pyridin-2-yl)amino)-1-ethyl-1,6-naphthyridin-2(1H)-one]: the EC50 in the assay on DoHH2 was less than 1000 nM; in the assay with Ramos (Homo sapiens, Ramos, 48 hrs) it was more than 10000 nM. Further, the figures for the 50% inhibitory concentration (IC50) on BTK (read-out: BTK IC50), at Src [4] and against Lyn [2] were less than 100 nM, more than 5000 nM and 100 to 1000 nM, respectively.

Turning to `COCCn1c(=O)c(-c2c(F)cccc2F)cc2cnc(Nc3ccc(F)cn3)cc21` [Compound 126, 3-(2,6-difluorophenyl)-7-((5-fluoropyridin-2-yl)amino)-1-(2-methoxyethyl)-1,6-naphthyridin-2(1H)-one], the 50% inhibitory concentration (IC50) is 1000 to 5000 nM against Src [1], 100 to 1000 nM at BTK and more than 5000 nM on Lyn [3]. Moreover, the half-maximal effective concentration (EC50) in the assay on DoHH2 is 1000 to 10000 nM; with Ramos (Homo sapiens, Ramos, 48 h), more than 10000 nM.

`O=c1c(-c2c(F)cccc2F)cc2cnc(Nc3ccc(F)cn3)cc2n1[C@H]1CCNC1` [Compound 149, (S)-3-(2,6-difluorophenyl)-7-((5-fluoropyridin-2-yl)amino)-1-(pyrrolidin-3-yl)-1,6-naphthyridin-2(1H)-one]: the IC50 was 1000 to 5000 nM on Src [1] and more than 5000 nM on Lyn [3]. The 50% effective concentration (EC50) was 1000 to 10000 nM in the assay with DoHH2 and more than 10000 nM with Ramos (Homo sapiens, Ramos, 48 hrs).

`O=c1c(-c2c(F)cccc2F)cc2cnc(Nc3ccc(F)cn3)cc2n1[C@@H]1CCNC1` [Compound 151, (R)-3-(2,6-difluorophenyl)-7-((5-fluoropyridin-2-yl)amino)-1-(pyrrolidin-3-yl)-1,6-naphthyridin-2(1H)-one]: the IC50 against Src [1] and against Lyn [2] was 100 to 1000 nM in each case. In addition, the EC50 is 1000 to 10000 nM with DoHH2 and more than 10000 nM with Ramos (Homo sapiens, Ramos, 48 hrs).
